# In patent US12111318B2, “Method for treating cancer based on expression levels of translationally controlled tumor protein (TCTP)” (KOREA UNIVERSITY RESEARCH AND BUSINESS FOUNDATION, priority 2020, dated 2024):
# Where two headings read alike, the source gives them in different places.
# Experiments:
# CT26 No cells = experiment: Cell viability assay (trypan blue exclusion), CT26 No cells; type: cell-based; conditions: Mus musculus, 24 hours, read-out: IC50 (concentration causing a 50% decrease in cell viability)
# Experimental: (§1) CT26 tumor cells were treated with indicated concentrations of cisplatin, dihydroartemisinin, rapamycin, sertraline, and thioridazine for 24 hours. Cell viability was measured by the trypan blue exclusion assay, and the concentrations causing a 50% decrease in cell viability (IC50 values) were determined.
# CT26 TCTP tumor cells = system: CT26 TCTP tumor cells
# Experimental: The tumor cells were harvested by trypsinization and washed once with DMEN (Thermo Fisher, USA) containing 0.1% fetal bovine (FBS), resuspended, and labeled in 0.1% DMEN with 10 μM CFSE for 10 minutes in a 37° C. incubator with 5% CO2. Then, the CFSE-labeled (MCF-7, HCT116, CaSki, MDA-MB-231) tumor cells were resuspended in 10 μM MART-1 peptide containing 1 ml of DMEM. In the case of A375 and 526Mel, the peptide-pulsing process was not needed. After peptide-pulsing for 1 hour, the cells were incubated for 4 hours with MART-1- or the NY-ESO1-specific CD8+ T cell lines at an E/T ratio of 1:1. […] All analysis was performed using a Becton Dickinson FACSverse (BD Bioscience, USA).
# To further investigate the effect of each drug on sensitizing TCTP^high tumor cells to CTL-mediated killing, CT26 TCTP tumor cells were incubated with CTLs at various tumor cell-T cell ratios after treatment with a sublethal dose of each drug.
# To quantify the synergistic effects of treatment of each drug with CTLs, a combination score was calculated based on changes in the percentage of apoptosis in drug-treated tumor cells with or without CTLs (see the following formula 1). […] Formula 1
# CT26 P3 tumor = experiment: ICB-refractory CT26 P3 tumor-bearing mice, anti-PD-L1 antibody alone or combined with DHA; type: in vivo, mouse; conditions: both the anti-PD-L1 blockade agent and DHA; all mice in the other groups died
# Experimental: Next, the present inventors expanded the preclinical therapeutic value of DHA in ICB therapy. To do this, ICB-refractory CT26 P3 tumor-bearing mice were administered anti-PD-L1 antibody alone or combined with DHA (FIG. 7G).
# CT26 TCTP cells = experiment: Cell viability assay (trypan blue exclusion), CT26 TCTP cells; type: cell-based
# Experimental: as §1
compound,measurement,setting,value
"C[C@H]1[C@@H](O)O[C@@H]2O[C@@]3(C)CC[C@H]4[C@H](C)CC[C@@H]1[C@@]24OO3 [DHA, dihydroartemisinin]",IC50,CT26 No cells,408 µM
same,CTL-mediated cytotoxicity,"CT26 TCTP tumor cells; sublethal dose of each drug, then CTLs at various tumor cell-T cell ratios, compared to PBS or cisplatin",augmented CTL-mediated cytotoxicity in a synergistic fashion
same,Mice that survived,CT26 P3 tumor,90%
same,Difference of IC50 between CT26 No and CT26 TCTP cells,CT26 TCTP cells; CT26 No vs CT26 TCTP,about 20 fold
same,IC50,"CT26 TCTP cells; Mus musculus, CT26 TCTP cells, 24 hours, read-out: IC50 (concentration causing a 50% decrease in cell viability)",22.7 µM
N.N.[Cl][Pt][Cl] [cisplatin],Susceptibility of CT26 TCTP cells to the drug,"CT26 TCTP cells; CT26 TCTP vs CT26 No cells, 24 hours",refractory
CO[C@H]1C[C@@H]2CC[C@@H](C)[C@@](O)(O2)C(=O)C(=O)N2CCCC[C@H]2C(=O)O[C@H]([C@H](C)C[C@@H]2CC[C@@H](O)[C@H](OC)C2)CC(=O)[C@H](C)/C=C(\C)[C@@H](O)[C@@H](OC)C(=O)[C@H](C)C[C@H](C)/C=C/C=C/C=C/1C [rapamycin],CTL-mediated cytotoxicity,CT26 TCTP tumor cells,augmented CTL-mediated cytotoxicity in a synergistic fashion
CN[C@H]1CC[C@@H](c2ccc(Cl)c(Cl)c2)c2ccccc21 [sertraline],CTL-mediated cytotoxicity,CT26 TCTP tumor cells,augmented CTL-mediated cytotoxicity in a synergistic fashion
CSc1ccc2c(c1)N(CCC1CCCCN1C)c1ccccc1S2 (stereo not drawn) [thioridazine],CTL-mediated cytotoxicity,CT26 TCTP tumor cells,augmented CTL-mediated cytotoxicity in a synergistic fashion
